This passage reports Ki results from ChEMBL document CHEMBL1148459, “1-alkyl-4-acylpiperazines as a new class of imidazole-free histamine H(3) receptor antagonists” (J Med Chem, 2004).

Histamine H3 receptor, sequence (Q9Y5N1 whole entry): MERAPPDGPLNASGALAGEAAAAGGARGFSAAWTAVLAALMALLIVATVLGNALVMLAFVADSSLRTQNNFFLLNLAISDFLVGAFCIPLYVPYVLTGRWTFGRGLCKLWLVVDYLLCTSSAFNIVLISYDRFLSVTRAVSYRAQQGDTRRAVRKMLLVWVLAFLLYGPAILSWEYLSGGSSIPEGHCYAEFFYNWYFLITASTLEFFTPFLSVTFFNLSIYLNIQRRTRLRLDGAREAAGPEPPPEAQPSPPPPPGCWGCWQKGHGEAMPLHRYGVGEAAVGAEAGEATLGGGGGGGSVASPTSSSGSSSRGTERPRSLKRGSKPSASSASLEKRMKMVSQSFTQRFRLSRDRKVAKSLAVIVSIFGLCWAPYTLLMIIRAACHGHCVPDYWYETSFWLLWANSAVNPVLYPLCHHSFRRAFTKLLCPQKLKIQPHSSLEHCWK

The test addresses Histamine H3 receptor (Homo sapiens, UniProt Q9Y5N1). The test can be described thus: Antagonist potency against human histamine H3 receptor expressed in CHO cells was determined by GTPgamma-S-assay. In kind it is functional, cell-based.
With `O=C(CCC(=O)N1CCN(CC2CC2)CC1)c1ccc(Cl)cc1`, affinity was put at a Ki of 8.3 nM.
For `CCC(CC)N1CCN(C(=O)Cc2ccc(-c3ccccc3)cc2)CC1` the value was 2.9 nM.
For `CCC(CC)N1CCN(C(=O)CCC(=O)c2ccc(C(F)(F)F)cc2)CC1` the value was 1.4 nM; for `CCC(CC)N1CCN(C(=O)CCC(=O)c2ccc(F)cc2)CC1`, 1.5 nM; for `CCC(CC)N1CCN(C(=O)Cc2ccc(C(C)=O)cc2)CC1`, 24 nM.
For `CCC(CC)N1CCN(C(=O)Cc2ccc(N(C)C)cc2)CC1` the value was 0.96 nM; for `CCC(CC)N1CCN(C(=O)Cc2ccc(OC(F)(F)F)cc2)CC1`, 2.6 nM.
In turn, `O=C(CCC(=O)N1CCN(C2CCCCC2)CC1)c1ccc(Cl)cc1` gave a Ki of 3.6 nM. The Ki values of the last two compounds are within 1.5-fold of each other.
For `CCC(CC)N1CCN(C(=O)CCC(=O)c2ccc(OC(F)(F)F)cc2)CC1` the value was 2.7 nM; for `C#CC(C)(C)N1CCN(C(=O)CCC(=O)c2ccc(Cl)cc2)CC1`, 89 nM; for `CCC(CC)N1CCN(C(=O)CCOc2ccc(C#N)cc2)CC1`, 0.74 nM.
For `O=C(CCC(=O)N1CCN(C2CCCCCCC2)CC1)c1ccc(Cl)cc1`, the affinity corresponds to a Ki of 450 nM. Against the preceding compound, the Ki is about 610-fold higher.
For `CCC(CC)N1CCN(C(=O)CCOc2ccc(Cl)cc2)CC1` the value was 1.2 nM.
For `CCC(CC)N1CCN(C(=O)CCC(=O)c2ccc(OC)c(F)c2)CC1` the value was 0.43 nM; for `CCC(CC)N1CCN(C(=O)CCc2ccc(C(F)(F)F)cc2)CC1`, 8.5 nM.
Compound `CCC(C)(C)N1CCN(C(=O)CCC(=O)c2ccc(Cl)cc2)CC1` returned a Ki of 0.54 nM.
For `CCC(CC)N1CCN(C(=O)Cc2ccc(C(F)(F)F)cc2)CC1` the value was 2.3 nM; for `CCC(CC)N1CCN(C(=O)c2ccc(OC(F)(F)F)cc2)CC1`, 93 nM.
For `O=C(CCC(=O)N1CCN(C2CCCCCC2)CC1)c1ccc(Cl)cc1` the value was 34 nM; for `CCC(CC)N1CCN(C(=O)CCC(=O)c2ccc(Cl)cc2)CC1`, 0.86 nM; for `O=C(CCC(=O)N1CCN(C2CCC2)CC1)c1ccc(Cl)cc1`, 1.2 nM.
For `CCCC(CCC)N1CCN(C(=O)CCC(=O)c2ccc(Cl)cc2)CC1` the value was 480 nM; for `CC(C)N1CCN(C(=O)CCC(=O)c2ccc(Cl)cc2)CC1`, 4.4 nM.
The compound `O=C(CCC(=O)N1CCN(C2CC2)CC1)c1ccc(Cl)cc1` registered an inhibition constant Ki of 13.3 nM.
For `CCC(CC)N1CCN(C(=O)COc2ccc(OC(F)(F)F)cc2)CC1` the value was 110 nM; for `O=C(CCC(=O)N1CCN(C2CCOCC2)CC1)c1ccc(Cl)cc1`, 9.2 nM.

For orientation: Ki means the equilibrium dissociation constant of an inhibitor or competing ligand from its target. A high value points to lower affinity.
